In US20240335544A1, “M6PR CELL SURFACE RECEPTOR BINDING COMPOUNDS AND CONJUGATES” (LYCIA THERAPEUTICS, INC., priority 2021, published 2024):
“Also recorded” adds a separate entry of the source. Where two headings read alike, the source gives them in different places. One block for each compound: values may come before it.

What was measured:
Jurkat cells [1] = assay: Conjugate-mediated uptake of IgG2a-Alexa488 into Jurkat cells; type: cell-based
Method: The anti-IgG2a conjugates were bound to IgG2a-Alexa488, as follows: equal molar ratios of anti-IgG2a and IgG2a-Alexa488 were added in tissue culture media for 30 minutes at room temperature. The resulting anti-IgG2a:IgG2a antibody-Alexa488 compositions were added to Jurkat cells (100 k cells/50 ul per well, n=2), and Alexa488 fluorescence levels were measured (via Alexa488 measurement) at 1 hour and 24 hours by flow cytometry. As the fluorescently labelled target (IgG2a antibody) accumulates in cells, the fluorescence presents a way to measure total intracellular uptake by cells over time.

Jurkat cells [2] = assay: Uptake of IgE-Alexa488 target by omalizumab conjugates in Jurkat cells; type: cell-based
Method: The omalizumab conjugates of Example 142 were bound to IgE-Alexa488 (prepared according to Example 144), as follows: equal molar ratios of omalizumab (anti-IgE) conjugate and IgE-Alexa488 were added in tissue culture media for 30 minutes at room temperature. The resulting anti-IgE conjugate:IgE antibody-Alexa488 compositions were added to Jurkat cells (100 k cells/50 ul per well, n=2), and Alexa488 fluorescence levels in the cells were measured at 1 hour by flow cytometry. As the fluorescently labelled target (IgE antibody) accumulates in cells, the fluorescence presents a way to measure total intracellular uptake by cells over time.

CI-M6PR [3] = biological target: T1, CI-M6PR (Homo sapiens, UniProt P11717); assay: Human CI-M6PR binding assay (ELISA); design: purchased R&D 6418-GR-050
Method: Nunc black solid bottom MaxiSorp plates were allowed to incubate overnight at 4° C. coated with 1 μg/mL of recombinant human CI-M6PR protein (R&D, 6418-GR-050) in 50 μL PBS. The next day, coating was decanted and plates were washed 3× with PBS. Wells were blocked with 350 μL of 3% BSA-PBS for 1 hour at room temperature. […] 50 μL of diluted conjugates were added to the plate and allowed to incubate at room temperature for 2 hours. After incubation, solutions in plate were decanted and washed with 350 μL of 0.05% PBS-Tween20 three times, drying the plate each wash on a clean paper towel. 50 μL of peroxidase AffiniPure Mouse Anti-Human IgG (Jackson Immuno, 209-035-088) diluted in 3% BSA-PBS to […] was added to the plate and allowed to incubate for 1 hour at room temperature in the dark. After incubation, solutions in plate were decanted and washed with 350 μL of 0.05% PBS-Tween20 3 times, drying the plate each wash on a clean paper towel. […] 50 μL of QuantaBlu solution was added to wells and allowed to incubate for 5-10 minutes at room temperature. After incubation, plates were read on a Perkin Elmer EnVision using photometric 340 and Umbelliferone 460 filter sets for excitation and emission, respectively. Data analysis and non-linear curve-fitting was performed using GraphPad Prism.
Target sequence in this assay (P11717 41-1365 limits assumed): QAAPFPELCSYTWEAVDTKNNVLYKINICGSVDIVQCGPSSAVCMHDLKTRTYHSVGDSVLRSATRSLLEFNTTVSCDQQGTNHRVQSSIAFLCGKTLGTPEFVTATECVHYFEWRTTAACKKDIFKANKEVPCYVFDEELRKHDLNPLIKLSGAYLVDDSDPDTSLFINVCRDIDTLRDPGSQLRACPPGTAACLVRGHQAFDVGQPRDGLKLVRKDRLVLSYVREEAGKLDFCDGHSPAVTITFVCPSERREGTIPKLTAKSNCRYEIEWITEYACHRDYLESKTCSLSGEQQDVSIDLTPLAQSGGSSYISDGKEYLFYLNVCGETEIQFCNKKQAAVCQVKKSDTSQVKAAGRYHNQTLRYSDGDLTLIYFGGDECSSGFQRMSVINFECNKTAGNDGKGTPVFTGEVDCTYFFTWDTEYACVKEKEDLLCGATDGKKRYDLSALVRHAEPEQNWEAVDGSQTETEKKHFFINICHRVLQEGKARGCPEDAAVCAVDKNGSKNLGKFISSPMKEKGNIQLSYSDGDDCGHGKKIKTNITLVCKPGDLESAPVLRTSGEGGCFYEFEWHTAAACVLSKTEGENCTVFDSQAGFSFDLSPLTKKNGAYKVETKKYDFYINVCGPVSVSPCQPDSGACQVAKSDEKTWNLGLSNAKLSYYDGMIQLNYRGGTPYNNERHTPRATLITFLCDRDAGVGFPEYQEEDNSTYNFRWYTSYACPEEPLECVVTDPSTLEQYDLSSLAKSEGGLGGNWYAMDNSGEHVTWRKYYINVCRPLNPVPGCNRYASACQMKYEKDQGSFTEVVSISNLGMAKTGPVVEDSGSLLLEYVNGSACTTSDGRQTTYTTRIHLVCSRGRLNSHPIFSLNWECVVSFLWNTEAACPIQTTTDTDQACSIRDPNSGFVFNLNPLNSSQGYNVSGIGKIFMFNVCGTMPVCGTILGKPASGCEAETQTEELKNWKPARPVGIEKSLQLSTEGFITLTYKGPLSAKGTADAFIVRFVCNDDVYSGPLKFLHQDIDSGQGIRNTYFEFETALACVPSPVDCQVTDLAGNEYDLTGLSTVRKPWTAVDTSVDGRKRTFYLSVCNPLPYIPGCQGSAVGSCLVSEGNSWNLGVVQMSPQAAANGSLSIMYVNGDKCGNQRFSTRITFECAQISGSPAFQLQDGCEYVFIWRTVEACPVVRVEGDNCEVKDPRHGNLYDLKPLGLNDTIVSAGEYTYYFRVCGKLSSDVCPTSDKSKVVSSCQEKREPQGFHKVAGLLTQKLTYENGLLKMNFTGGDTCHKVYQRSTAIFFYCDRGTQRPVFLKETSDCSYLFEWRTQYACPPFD

[4] = Serum pharmacokinetic analysis of rIgG1 (anti-IgG2a) antibody conjugates; type: in vivo, mice; conditions: intravenous 10 μg/mouse, serum 0.5-24 h, compared to Compound I-7 conjugate
Method: A pharmacokinetic analysis of the rIgG1 (anti-IgG2a) antibody conjugates described in the previous example was performed in mice. In particular, […] mice were intravenously administered each rIgG1 antibody conjugate at 10 μg/mouse (5 mice per group). Blood was collected at 0.5, 1, 2, 6, and 24 hours and serum rIgG1 was analyzed using an ELISA kit (Abcam) according to the manufacturer's instructions. Samples were run across 3 different plates with unconjugated rIgG1 controls (UNLB-anti-IgG2a rIgG1) included on all 3 plates. FIGS. 8A-8C show the serum levels of anti-IgG2a conjugated to Compound I-7 (dar8) and (dar4) (FIG. 8A), anti-IgG2a conjugated to Compound I-10 and anti-IgG2a conjugated to Compound I-11 (FIG. 8B), and anti-IgG2a conjugated to Compound I-9 and anti-IgG2a conjugated to Compound I-12 (FIG. 8C) over time.

CI-M6PR [5] = biological target: T1, CI-M6PR; assay: CI-M6PR SPR binding assay; conditions: omalizumab conjugates at DAR of about 4
Method: The CI-M6PR binding affinities of omalizumab (anti-IgE) conjugates of Table 19 were also assessed via SPR binding assay. […] At equivalent DAR (m) values, the koff rate of the omalizumab (anti-IgE) conjugates was 552>529>570.
Target sequence in this assay (P11717 41-2491): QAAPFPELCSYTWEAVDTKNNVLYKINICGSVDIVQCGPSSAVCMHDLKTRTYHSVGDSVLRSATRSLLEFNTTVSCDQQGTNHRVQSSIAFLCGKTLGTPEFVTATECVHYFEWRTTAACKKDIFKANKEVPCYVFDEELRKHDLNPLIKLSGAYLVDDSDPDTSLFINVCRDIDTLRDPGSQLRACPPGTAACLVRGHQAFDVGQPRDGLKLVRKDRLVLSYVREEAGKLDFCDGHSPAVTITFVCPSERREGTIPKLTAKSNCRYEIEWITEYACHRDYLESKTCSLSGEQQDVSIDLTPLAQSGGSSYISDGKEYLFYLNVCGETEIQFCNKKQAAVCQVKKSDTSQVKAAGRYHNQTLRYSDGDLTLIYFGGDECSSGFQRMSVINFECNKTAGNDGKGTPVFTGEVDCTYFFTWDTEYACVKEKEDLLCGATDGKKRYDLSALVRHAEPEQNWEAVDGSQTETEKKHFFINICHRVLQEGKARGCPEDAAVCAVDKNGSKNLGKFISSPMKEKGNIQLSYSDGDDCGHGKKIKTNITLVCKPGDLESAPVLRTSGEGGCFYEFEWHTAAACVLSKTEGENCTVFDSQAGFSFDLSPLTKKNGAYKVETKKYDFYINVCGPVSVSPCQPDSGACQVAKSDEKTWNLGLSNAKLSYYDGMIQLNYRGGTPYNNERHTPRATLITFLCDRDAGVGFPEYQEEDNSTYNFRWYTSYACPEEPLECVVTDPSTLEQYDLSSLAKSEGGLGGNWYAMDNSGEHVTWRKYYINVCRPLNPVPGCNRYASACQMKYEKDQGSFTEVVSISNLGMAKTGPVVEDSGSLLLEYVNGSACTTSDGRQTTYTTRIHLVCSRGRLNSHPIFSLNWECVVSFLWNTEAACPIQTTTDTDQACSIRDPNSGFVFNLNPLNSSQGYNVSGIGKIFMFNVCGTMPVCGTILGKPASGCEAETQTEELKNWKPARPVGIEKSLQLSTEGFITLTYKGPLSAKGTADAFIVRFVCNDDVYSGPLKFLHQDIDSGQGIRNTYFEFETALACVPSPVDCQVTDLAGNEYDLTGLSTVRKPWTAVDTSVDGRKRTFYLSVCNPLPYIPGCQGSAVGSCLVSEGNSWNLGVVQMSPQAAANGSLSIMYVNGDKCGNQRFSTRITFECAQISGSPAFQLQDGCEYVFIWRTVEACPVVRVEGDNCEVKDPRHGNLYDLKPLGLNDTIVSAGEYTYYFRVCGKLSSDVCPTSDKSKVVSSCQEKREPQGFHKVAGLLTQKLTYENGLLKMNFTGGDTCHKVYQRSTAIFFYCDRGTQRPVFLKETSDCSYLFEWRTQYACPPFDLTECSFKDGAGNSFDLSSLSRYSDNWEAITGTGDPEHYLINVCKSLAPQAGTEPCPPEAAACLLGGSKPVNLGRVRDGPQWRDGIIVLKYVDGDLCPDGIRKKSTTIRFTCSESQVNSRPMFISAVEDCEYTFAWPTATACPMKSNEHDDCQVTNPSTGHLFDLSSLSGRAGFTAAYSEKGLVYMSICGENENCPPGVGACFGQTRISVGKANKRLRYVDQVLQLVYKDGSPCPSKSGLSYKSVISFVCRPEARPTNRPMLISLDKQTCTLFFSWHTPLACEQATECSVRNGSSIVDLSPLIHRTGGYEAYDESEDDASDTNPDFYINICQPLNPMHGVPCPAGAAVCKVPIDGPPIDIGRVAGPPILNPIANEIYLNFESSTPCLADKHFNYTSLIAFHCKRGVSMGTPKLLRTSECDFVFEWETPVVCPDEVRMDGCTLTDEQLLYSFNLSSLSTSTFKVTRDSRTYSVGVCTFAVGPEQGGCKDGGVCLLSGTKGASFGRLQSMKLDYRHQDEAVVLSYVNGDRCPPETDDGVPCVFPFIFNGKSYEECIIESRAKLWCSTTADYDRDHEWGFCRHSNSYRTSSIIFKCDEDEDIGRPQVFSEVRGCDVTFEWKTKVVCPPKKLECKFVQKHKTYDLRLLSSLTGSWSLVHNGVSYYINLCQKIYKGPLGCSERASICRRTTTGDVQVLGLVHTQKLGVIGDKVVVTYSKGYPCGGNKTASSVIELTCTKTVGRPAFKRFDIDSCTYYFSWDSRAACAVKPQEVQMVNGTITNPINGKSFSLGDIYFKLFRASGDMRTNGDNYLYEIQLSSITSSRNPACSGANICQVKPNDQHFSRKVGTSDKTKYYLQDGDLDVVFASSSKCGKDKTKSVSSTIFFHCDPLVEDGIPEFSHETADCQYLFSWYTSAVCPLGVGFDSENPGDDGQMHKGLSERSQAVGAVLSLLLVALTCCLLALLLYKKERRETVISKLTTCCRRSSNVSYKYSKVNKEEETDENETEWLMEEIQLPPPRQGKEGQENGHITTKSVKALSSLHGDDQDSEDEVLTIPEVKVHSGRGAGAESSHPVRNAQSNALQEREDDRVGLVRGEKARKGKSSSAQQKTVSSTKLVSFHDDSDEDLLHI

[6] = biological target: T2, M6PR (Domains I-9, R&D Systems) (Homo sapiens, UniProt P11717); assay: General M6PR binding assay (fluorescence polarization); conditions: Table 16F, unconjugated compounds, 100 nM M6PR, 1 nM probe, 2 hr incubation
T2 construct: with 100 nM M6PR (Domains I-9, R&D Systems) and 1 nM probe; purchased R&D Systems
Method: M6PR binding was measured in black 96-well plates using a fluorescence polarization assay. A fluorescent probe consisting of a reference M6Pn ligand linked to Cy5 was synthesized. Test compounds were resuspended in DMSO and 3-fold serial dilutions were made at 100× final concentrations. Binding reactions were conducted in 100 μl final volume in 20 mM HEPES (pH 7.5) 100 mM NaCl 0.015% Tween-20 1% DMSO with 100 nM M6PR (Domains I-9, R&D Systems) and 1 nM probe. Fluorescence polarization was measured using Xex=620 nm, λem=688 nm on an Envision plate reader (Perkin Elmer) after 2 hr incubation time. Dose responses were conducted in duplicate and normalized to the response with DMSO (high) and 1 μM reference compound (low) on each plate. IC50 values were determined by fitting to 4-parameter curves in GraphPad Prism.

T2 sequence (P11717 41-1365 limits assumed): as the sequence (P11717 41-1365 limits assumed) above

Compound: O=C(NCCCCc1cn(CCOCCOCCOCCOCCC(=O)Oc2c(F)c(F)c(F)c(F)c2F)nn1)Nc1ccc(O[C@H]2O[C@H](CCP(=O)(O)O)[C@@H](O)[C@H](O)[C@@H]2O)cc1 [529 (I-38)]
uptake into Jurkat cells (cell fluorescence vs conjugate concentration) (Jurkat cells [1]; one hour incubation, FIG. 12, DAR 9-11 per conjugate): strong cell uptake | relative cellular uptake activity of IgE-Alexa488, omalizumab conjugates of Table 15A (Jurkat cells [2]; 1 hour, FIGS. 15-17): comparable activity to a thiourea Z^3 analog (520 (I-7) with m=4) | EC50 (CI-M6PR [3]; Table 16E, conjugate, m average DAR 9.5, read-out: EC50 in M6PR binding assay for conjugates of monovalent compounds of varying linker length and loading): 0.19 nM | EC50 (CI-M6PR [3]; antibody conjugate, average loading DAR 9.5, read-out: EC50 (nM) in M6PR binding assay): 0.19 nM

Compound: O=C(CCN1C(=O)C=CC1=O)NCCOCCOCCOCCn1cc(CCO[C@H]2O[C@H](CCP(=O)(O)O)[C@@H](O)[C@H](O)[C@@H]2O)nn1 [Compound I-10]
intracellular uptake of IgG2a-Alexa488 into Jurkat cells (Jurkat cells [1]; anti-IgG2a conjugates, 1 h and 24 h (FIGS. 9-10)): sufficiently robust uptake | half-life in mice [4]: longer half-life | binding affinity to M6PR compared to Compound I-7 (CI-M6PR [3]; conjugates of ligand linkers): weaker binding affinity to M6PR compared to Compound I-7; also recorded: weaker binding affinity to M6PR than Compound I-7

Compound: O=C(NCCCCc1cn(CCOCCOCCOCCOCCC(=O)Oc2c(F)c(F)c(F)c(F)c2F)nn1)Nc1ccc(S[C@@H]2O[C@H](CCP(=O)(O)O)[C@@H](O)[C@H](O)[C@@H]2O)cc1 [Compound 570]
relative cellular uptake activity of IgE-Alexa488, omalizumab conjugates of Table 15B (Jurkat cells [2]; 1 hour, FIGS. 18-21): superior activity to conjugates having a α-S-glycoside configuration (552), and to a conjugate having an α-O-glycoside configuration (520 (I-7), m=8) | relative cellular uptake activity of IgE-Alexa488, omalizumab conjugates of Table 19 (Jurkat cells [2]; FIG. 23, entire dose response range): superior activity to the corresponding conjugates of α-O-glycoside (529) and α-S-glycoside (552) | Kd (CI-M6PR binding affinity by SPR), relative (CI-M6PR [5]): superior Kd relative to corresponding α-O (529) and α-S-glycosides (552)

IC50 [6]: ≤ 50 nM
Compound: CC(=O)N[C@@H](CCCCn1cc(CCCCNC(=O)Nc2ccc(O[C@H]3O[C@H](CCP(=O)(O)O)[C@@H](O)[C@H](O)[C@@H]3O)cc2)nn1)C(=O)N[C@@H](CCCCn1cc(CCCCNC(=O)Nc2ccc(O[C@H]3O[C@H](CCP(=O)(O)O)[C@@H](O)[C@H](O)[C@@H]3O)cc2)nn1)C(=O)NCCOCCOCCOCCOCCC(=O)N[C@@H](CCCCn1cc(CCCCNC(=O)Nc2ccc(O[C@H]3O[C@H](CCP(=O)(O)O)[C@@H](O)[C@H](O)[C@@H]3O)cc2)nn1)C(=O)N[C@@H](CCCCn1cc(CCCCNC(=O)Nc2ccc(O[C@H]3O[C@H](CCP(=O)(O)O)[C@@H](O)[C@H](O)[C@@H]3O)cc2)nn1)C(=O)NCCOCCOCCOCCOCCC(=O)O [Compound 770]
